Assay results from article PMC5866846 (Archives of Toxicology, 2017).

Tests used:
[1] = Formation of Met E and Tam-Bis from precursors in pooled human liver microsomes with and without NADPH-regenerating system; format: in vitro ADME; settings: DM-Tam, DDM-Tam, 50 µM, pooled HLM
Procedure: The reaction was started by adding a NADPH regenerating system (5 mM MgCl2, 5 mM glucose-6-phosphate, 0.5 mM NADP^+ and 10 U glucose-6-phosphate-dehydrogenase in 100 mM sodium phosphate buffer pH 7.4) to the samples and immediately put in a 37 °C water bath for 30 min. The reaction was stopped with the same volume of acetonitrile (ACN) containing 1% of acetic acid together with the corresponding deuterated internal standards. Regarding incubations with Supersomes™ containing UGTs, 5 µg of protein was incubated with 250 mM MgCl2 and 2.5 ng of alamethicin for 30 min on ice, followed by 10 min at 37 °C in a water bath. […] Metabolites were analyzed by HPLC-ESI-MS/MS.
Protein was precipitated by the addition of ACN containing 1% of acetic acid and the corresponding deuterated internal standards to the same volume of the sample followed by centrifugation at 20.000 g for 15 min at RT. […] Analytes were separated on a Zorbax Eclipse Plus C18 column (1.8 µm, 100 × 2.1 mm, Agilent technologies) and detected on a 6460 triple quadrupole mass spectrometer (Agilent technologies) in positive ESI MRM mode. Glucuronides of estrogen-like metabolites were detected separately via MS/MS-measurements in negative ESI MRM mode. […]

[2] = Formation kinetics of Tam-Bis, (Z)- and (E)-Met E in HLM with increasing substrate concentrations; format: in vitro ADME, human; settings: substrate 1 to 50 µM, Michaelis-Menten
Procedure: The reaction was started by adding a NADPH regenerating system (5 mM MgCl2, 5 mM glucose-6-phosphate, 0.5 mM NADP^+ and 10 U glucose-6-phosphate-dehydrogenase in 100 mM sodium phosphate buffer pH 7.4) to the samples and immediately put in a 37 °C water bath for 30 min. The reaction was stopped with the same volume of acetonitrile (ACN) containing 1% of acetic acid together with the corresponding deuterated internal standards. Regarding incubations with Supersomes™ containing UGTs, 5 µg of protein was incubated with 250 mM MgCl2 and 2.5 ng of alamethicin for 30 min on ice, followed by 10 min at 37 °C in a water bath. Subsequently, the Supersomes™ were incubated with 10 µM of substrates (Tam-Bis, (E)- and (Z)-Met E) and the glucuronidation was started by addition of 10 mM of uridine 5′-diphospho-glucuronic acid to the samples in a water bath at 37 °C for 30 min. The reaction was stopped as described above. Metabolites were analyzed by HPLC-ESI-MS/MS.
For the assessment of formation kinetics of Tam-Bis, (E)- and (Z)-Metabolite E, HLM were incubated with increasing substrate concentrations ranging from 1 to 50 µM as described above. As control for each concentration a sample without NADPH-regenerating system was prepared. […]

[3] = test system: single CYP isoenzymes (Supersomes); test: Formation of estrogen-like metabolites in Supersomes specific for single CYP isoenzymes; format: in vitro ADME; settings: 50 µM precursors
Text: Supersomes™ were obtained from Corning Incorporated, Wiesbaden, Germany, and were specific for CYP isoenzymes CYP1A1, 1A2, 2A6, 2B6, 2C8, 2C9, 2C19, 2D6, 3A4, 3A5 and 19A1. All Supersomes™ contained oxidoreductase. Cytochrome b5 was present in the Supersomes™ of CYP2A6, 2B6, 2C8, 2C9, 3A4 and 3A5. UDP-glucuronosyltransferases (UGT)containing Supersomes™ were specific for the following isoenzymes: 1A1, 1A2, 1A3, 1A4, 1A6, 1A7, 1A8, 1A9, 1A10, 2B4, 2B7, 2B10, 2B15 and 2B17.
The reaction was started by adding a NADPH regenerating system (5 mM MgCl2, 5 mM glucose-6-phosphate, 0.5 mM NADP^+ and 10 U glucose-6-phosphate-dehydrogenase in 100 mM sodium phosphate buffer pH 7.4) to the samples and immediately put in a 37 °C water bath for 30 min. The reaction was stopped with the same volume of acetonitrile (ACN) containing 1% of acetic acid together with the corresponding deuterated internal standards. […] Metabolites were analyzed by HPLC-ESI-MS/MS.
Protein was precipitated by the addition of ACN containing 1% of acetic acid and the corresponding deuterated internal standards to the same volume of the sample followed by centrifugation at 20.000 g for 15 min at RT. […] Glucuronides of estrogen-like metabolites were detected separately via MS/MS-measurements in negative ESI MRM mode.

[4] = test system: upcyte hepatocytes 653-03 and 653-03 2D6; test: Tam metabolism in upcyte hepatocytes, cell strain not distinguished; format: in vitro ADME, human; settings: 1 µM Tam, all time points
Procedure: The medium was replaced every 2–3 days. […].
The culture medium was collected after 24, 48, 72, 96 and 144 h followed by metabolite measurements using HPLC-ESI-MS/MS.
Protein was precipitated by the addition of ACN containing 1% of acetic acid and the corresponding deuterated internal standards to the same volume of the sample followed by centrifugation at 20.000 g for 15 min at RT. […] Analytes were separated on a Zorbax Eclipse Plus C18 column (1.8 µm, 100 × 2.1 mm, Agilent technologies) and detected on a 6460 triple quadrupole mass spectrometer (Agilent technologies) in positive ESI MRM mode. Glucuronides of estrogen-like metabolites were detected separately via MS/MS-measurements in negative ESI MRM mode.
[…]. […] […].

CYP1A2 = CYP1A2 activity in upcyte hepatocytes after treatment (probe substrate cocktail); settings: human, EC50 of induction of CYP1A2 activity, 50 pM to 5 µM
Procedure: (§1) Cells were cultivated in hepatocyte culture medium at 37 °C and 5 °% CO2 in a humidified incubator. Before starting experiments, cells were cultivated in hepatocyte culture medium containing 0.5% (v/v) DMSO (Preculture medium) for 5 days (density of 0.8 × 10^4 cells/cm^2) and were subcultivated in high-performance medium containing 0.1% (v/v) DMSO (Metabolism conditioning medium) for 3–5 days (density of 1.6 × 10^5 cells/cm^2, confluence). The medium was replaced every 2–3 days.
(§2) In HLM and supersome™ incubations the formation rate is given as nmol µg^−1 min^−1 and fmol pmol^−1 min^−1, respectively, and was calculated as the mean ± SD. […] The intrinsic Clearance (Clint) was given as Vmax/Km ratio. […] Activity of CYP enzymes in induction assays is given as the fold-change (mean ± SD) compared to the corresponding DMSO-treated control. […] Gene expression patterns of treated cells are given as fold-change compared to the corresponding DMSO-treated control samples, as described above. […] In induction and inhibition experiments corresponding EC50 and IC50 values were calculated by nonlinear regression. In all experiments a level of probability (p) ≤ 0.05 for statistical testing was considered significant.
(§3) As control 0.05 % DMSO was used. The basal CYP activity and induction of CYP activity compared to the DMSO control were measured via HPLC-ESI-MS/MS.

CYP2B6 = CYP2B6 activity in upcyte hepatocytes after treatment (probe substrate cocktail); settings: human, probe bupropion (25 µM)
Procedure: as §1, §2, §3

CYP3A4 = CYP3A4 activity in upcyte hepatocytes after treatment (probe substrate cocktail); settings: 72 h
Procedure: as §1, §2, §3

CYP3A4 gene expression = CYP3A4 gene expression in upcyte hepatocytes (Fluidigm RT-PCR); settings: 5 µM, 72 h, both cell strains
Text: Total RNA was isolated from cells using the Direct-zol™ RNA MiniPrep kit (Zymo Research Corp., Irvine, California). cDNA was synthesized using TaqMan Reverse Transcription Reagents (Life technologies, Applera GmbH, Darmstadt, Germany) and the expression of 25 genes representative of phase I and phase II drug metabolism and transport was quantified by Fluidigm’s BioMark HD high-throughput quantitative chip platform (Fluidigm Corporation, San Francisco, USA). For relative gene expression analysis, the delta-delta-Ct (ΔΔCt) method was used: the Ct values of the target mRNA were first normalized to those of the endogenous control glyceraldehyde-3-phosphate dehydrogenase (GAPDH) followed by dividing values of experimental samples by their corresponding DMSO-treated controls to calculate the x-fold changes of mRNA expression.
as §2, §3

estrogen receptor = test system: estrogen receptor; parameters: method as in Johnson et al. [1989]; Murphy et al. [1990]; settings: in vitro, estrogen-dependent breast cancer cell lines; ref Johnson et al. [1989]; Murphy et al. [1990]; cited from earlier work
CYP2C8 = target: T1, CYP2C8 (Homo sapiens, UniProt P10632); test: CYP2C8 activity in upcyte hepatocytes after treatment (probe substrate cocktail); format: cell-based; parameters: host or cells: upcyte hepatocytes 653-03 and 653-03 #138 (653-03 2D6); settings: human, probe amodiaquine (5 µM), upcyte hepatocytes, 50 pM to 5 µM, read-out: EC50 of induction of CYP2C8 activity
T1 sequence (P10632 1-490): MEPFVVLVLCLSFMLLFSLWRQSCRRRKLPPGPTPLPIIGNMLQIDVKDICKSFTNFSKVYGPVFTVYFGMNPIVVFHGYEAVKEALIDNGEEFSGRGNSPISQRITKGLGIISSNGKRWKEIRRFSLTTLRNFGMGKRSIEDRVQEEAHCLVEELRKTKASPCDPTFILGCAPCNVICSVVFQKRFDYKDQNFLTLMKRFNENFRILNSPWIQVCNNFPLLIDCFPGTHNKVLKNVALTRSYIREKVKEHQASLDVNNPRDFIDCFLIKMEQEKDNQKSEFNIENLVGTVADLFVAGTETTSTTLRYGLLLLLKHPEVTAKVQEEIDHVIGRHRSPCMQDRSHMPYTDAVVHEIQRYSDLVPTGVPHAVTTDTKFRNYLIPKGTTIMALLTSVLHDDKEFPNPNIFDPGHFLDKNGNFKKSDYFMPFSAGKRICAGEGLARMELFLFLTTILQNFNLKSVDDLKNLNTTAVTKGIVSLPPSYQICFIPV
Procedure: as §1, §2, §3

CYP2C9 = CYP2C9 (Homo sapiens, UniProt P11712); test: CYP2C9 activity in upcyte hepatocytes after treatment (probe substrate cocktail); format: cell-based; parameters: host or cells: upcyte hepatocytes 653-03 and 653-03 #138 (653-03 2D6); settings: 5 µM, 72 h
Procedure: as §1, §2, §3

CYP2C19 = CYP2C19 (Homo sapiens, UniProt P33261); test: CYP2C19 activity in upcyte hepatocytes after treatment (probe substrate cocktail); format: cell-based; parameters: host or cells: upcyte hepatocytes 653-03 and 653-03 #138 (653-03 2D6); settings: human, probe S-mephenytoin (100 µM), upcyte hepatocytes, 50 pM to 5 µM, read-out: EC50 of induction of CYP2C19 activity
Procedure: as §1, §2, §3

Chain of CYP2C19 (P33261 whole entry): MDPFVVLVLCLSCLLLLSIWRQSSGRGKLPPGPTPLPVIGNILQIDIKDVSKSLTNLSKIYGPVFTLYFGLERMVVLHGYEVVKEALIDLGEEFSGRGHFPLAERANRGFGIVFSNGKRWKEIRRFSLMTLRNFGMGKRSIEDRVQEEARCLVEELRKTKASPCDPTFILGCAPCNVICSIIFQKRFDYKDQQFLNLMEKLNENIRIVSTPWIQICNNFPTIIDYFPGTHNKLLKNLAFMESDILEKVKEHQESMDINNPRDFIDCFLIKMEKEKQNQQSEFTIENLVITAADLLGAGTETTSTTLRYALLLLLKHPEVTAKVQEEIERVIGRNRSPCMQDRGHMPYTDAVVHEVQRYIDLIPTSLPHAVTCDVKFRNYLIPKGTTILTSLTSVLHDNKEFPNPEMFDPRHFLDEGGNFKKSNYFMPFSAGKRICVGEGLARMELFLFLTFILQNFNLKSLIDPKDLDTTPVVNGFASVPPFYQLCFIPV
Chain of CYP2C9 (P11712 whole entry): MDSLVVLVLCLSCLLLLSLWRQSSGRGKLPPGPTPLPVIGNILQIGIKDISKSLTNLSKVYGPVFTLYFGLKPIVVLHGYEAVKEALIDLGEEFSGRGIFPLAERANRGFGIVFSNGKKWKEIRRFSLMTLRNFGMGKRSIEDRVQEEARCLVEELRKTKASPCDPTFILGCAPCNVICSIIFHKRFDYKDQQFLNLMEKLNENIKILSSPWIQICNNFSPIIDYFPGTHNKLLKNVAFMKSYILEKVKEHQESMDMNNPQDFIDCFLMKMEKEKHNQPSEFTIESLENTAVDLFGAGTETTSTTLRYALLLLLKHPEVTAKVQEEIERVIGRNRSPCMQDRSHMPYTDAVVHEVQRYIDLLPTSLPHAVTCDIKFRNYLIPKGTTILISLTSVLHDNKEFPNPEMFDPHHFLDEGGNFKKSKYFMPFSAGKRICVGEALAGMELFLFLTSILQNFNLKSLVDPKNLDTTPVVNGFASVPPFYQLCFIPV

With `CCC(=C(c1ccccc1)c1ccc(O)cc1)c1ccccc1` [(E)-Met E, 4-[1,2-diphenylbut-1-en-1-yl]phenol] the “formation rate of the (E)-isomer compared to (Z)-Met E” value [1] was “approximately 10%”, the “V max, Bisphenol formation” value [2] was 8.1 pmol/mg/min and the Km ([2]; read-out: Km, Bisphenol formation) was 10.4 µM. The “formation rates lower than those of the (Z)-isomer” value [3] was “approximately 10 times”, the “concentration of the (E)-isomer relative to (Z)-Met E” value [4] was “about 10%” and the EC50 at 72 h (CYP1A2) was over 5 µM. For the same compound, the EC50 at 72 h (CYP2B6) was over 5 µM, the “induction of CYP3A4 activity compared to DMSO control” value (CYP3A4; 5 µM, parental and derived cell line) was “weakly induced” and the EC50 at 72 h (CYP3A4; human, probe atorvastatin (35 µM), EC50 of induction of CYP3A4 activity, upcyte hepatocytes, 50 pM to 5 µM) was 0.277 µM. For the same compound, the “CYP3A4 gene expression, induction vs DMSO control” value (CYP3A4 gene expression) was “up to 5.6 fold”, the “agonism regarding estrogen-regulated mRNA expression” value (estrogen receptor) was “full agonists” and the EC50 at 72 h (CYP2C8) was over 5 µM. For the same compound, the “induction of CYP2C9 activity” value (CYP2C9) was “weakly induced” and the EC50 at 72 h (CYP2C19) was over 5 µM.
